PMC13075795, “A dual-threshold system relying on multiple c-di-GMP metabolic enzymes controls cell fate of a cyanobacterium” (PLOS Biology, 2026)

T1: CdgS (Nostoc sp. PCC 7120 = FACHB-418, UniProt A0ACD7RTW6)
T1 construct: gene all2874; full-length; pHTwinStrep vector, C-terminal twin Strep-tag kept; expressed in E. coli BL21(DE3); Strep-Tactin and SEC
T1 sequence (A0ACD7RTW6 1-330): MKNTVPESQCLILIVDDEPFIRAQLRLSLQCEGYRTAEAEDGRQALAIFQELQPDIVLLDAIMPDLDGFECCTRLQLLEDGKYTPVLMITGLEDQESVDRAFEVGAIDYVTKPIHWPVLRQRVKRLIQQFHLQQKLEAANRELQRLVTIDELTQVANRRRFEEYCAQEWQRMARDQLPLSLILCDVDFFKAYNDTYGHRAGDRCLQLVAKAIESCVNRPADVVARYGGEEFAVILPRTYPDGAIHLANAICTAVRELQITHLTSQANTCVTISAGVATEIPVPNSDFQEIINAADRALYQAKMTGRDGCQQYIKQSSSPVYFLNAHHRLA

B1: Alr3599 (Nostoc sp. PCC 7120 = FACHB-418) (protein)
chain: MSGISPYSLSKKPPVILVADDDKTIRMLLREAMEKEGYRVVEVTDGKQCLDAYEAVKPDIVLLDAMMPVMDGFTCCKQLLQIARNNLITALANLDTDSGLGNTVISRLWERTPILMITSLNDAESVDRAFEAGATDYITKPIHWAVLRQRLRRLLQQAQVYKQLEAANMALQHLANVDGLTGLANRRRFDNYLNTQWINLVQEGAPLSLILCDIDYFKFYNDQYGHPTGDICLQKVGAVLSYKAQKHQDLVARYGGEEFAVVMPYTHAKGAIYVAHAIQTSVRDLQIAHDKSAVSQHITLSMGVATITPTWESSPSDLIAAADKALYKAKESGRNRICQWEDSQ
notes: full-length; pHTwinStrep vector, C-terminal twin Strep-tag kept; expressed in E. coli BL21(DE3); Strep-Tactin and SEC
B2: Alr1219-ΔCT (All1219-ΔCT) (Nostoc sp. PCC 7120 = FACHB-418) (protein)
chain: HMQEELKRSKEFLQQVIDTIADPIFVKNEQHQWIVLNKAYCRFIGYPESFLVEKSDVDFFPKHEADVFRQQDELVFETQRPQENEEEFTDAYGKTHLIATKRSLHKDAAGNFFLVGVIRDITQRKIMEEELKRTAAELFRSNNELKLKEDHLRYLAYHDALTGLPNRKYFAEQLYESINWAKDNNLSLGLLFIDLDGFKQVNDSLGHEMGDRLLVVIAQRLSNSLRASDTVARLGGDEFTVILQAIPNVQVAAKVAEKILANITEPIVLNGCTAKVSVSIGISIYPETSLDPDTLLKKADAAMYRAKHLGKNRFELADRVNTEF
notes: C-terminal twin Strep-tag kept; expressed in E. coli BL21(DE3)
B3: CdgS (Nostoc sp. PCC 7120 = FACHB-418) (protein)
chain: MKNTVPESQCLILIVDDEPFIRAQLRLSLQCEGYRTAEAEDGRQALAIFQELQPDIVLLDAIMPDLDGFECCTRLQLLEDGKYTPVLMITGLEDQESVDRAFEVGAIDYVTKPIHWPVLRQRVKRLIQQFHLQQKLEAANRELQRLVTIDELTQVANRRRFEEYCAQEWQRMARDQLPLSLILCDVDFFKAYNDTYGHRAGDRCLQLVAKAIESCVNRPADVVARYGGEEFAVILPRTYPDGAIHLANAICTAVRELQITHLTSQANTCVTISAGVATEIPVPNSDFQEIINAADRALYQAKMTGRDGCQQYIKQSSSPVYFLNAHHRLA
notes: as for B1

Legend:
Alr3599 = biological target: T2, Alr3599 (Nostoc sp. PCC 7120 = FACHB-418, UniProt A0ACD7RVV5); experiment: HPLC diguanylate cyclase inhibition assay (GTP consumption); format: biochemical
T2 construct: full-length; pHTwinStrep vector, C-terminal twin Strep-tag kept; expressed in E. coli BL21(DE3); Strep-Tactin and SEC

[1] = biological target: T3, Alr1219-ΔCT (All1219-ΔCT) (Nostoc sp. PCC 7120 = FACHB-418, UniProt A0ACD7RQN0); experiment: as above; format: biochemical
T3 construct: C-terminal twin Strep-tag kept; expressed in E. coli BL21(DE3)

CdgS = biological target: T1, CdgS; experiment: as above; format: biochemical
[2] = substrate: Nc1nc2c(ncn2[C@@H]2O[C@H](COP(=O)(O)OP(=O)(O)OP(=O)(O)O)[C@@H](O)[C@H]2O)c(=O)[nH]1; experiment: HPLC diguanylate cyclase assay, Michaelis-Menten fit; format: biochemical, Nostoc sp. PCC 7120 = FACHB-418; settings: 3.13-200 μM GTP, 1 μM protein, 10 min, 25 °C, 50 mM Tris-HCl pH 8.0, 0.2 M NaCl, 10 mM MgCl2

Molecule	Ki (Alr3599)	Ki [1]	Ki (CdgS)	Km [2]
Nc1nc2c(ncn2[C@@H]2O[C@@H]3CO[P@](=O)(O)O[C@H]4[C@@H](O)[C@H](n5cnc6c(=O)[nH]c(N)nc65)O[C@@H]4CO[P@](=O)(O)O[C@H]3[C@H]2O)c(=O)[nH]1 [c-di-GMP]	16 µM	3.7 µM	2.42 µM	–
B1	–	–	–	84.2 ± 30.1 µM
B2	–	–	–	20.3 ± 12.4 µM
B3	–	–	–	26.6 ± 3.5 µM
